Assay [1] deals with Mycobacterium tuberculosis. The experiment in a line: Antibacterial activity against isoniazid/rifampin-resistant Mycobacterium tuberculosis after 8 to 9 days by BacT/Alert MP bottle assay. The format is functional.
The subject of assay [2] is Mycobacterium tuberculosis. The experiment in a line: Antibacterial activity against rifampin-resistant Mycobacterium tuberculosis after 8 to 9 days by BacT/Alert MP bottle assay. The format is functional.

In brackets after ≈: the same amount, converted by molar mass.

In general, MIC refers to the lowest concentration that inhibits growth of the organism. Lower therefore signals greater potency.

On to `COc1ccc(C2=Nn3c(nnc3-c3ccncc3)SC2)cc1`, for which the minimal inhibitory concentration (MIC) came out at 4 µg/mL (≈ 12.4 µM) in assay [1] and 2 µg/mL (≈ 6.18 µM) in assay [2].

Consider `O=[N+]([O-])c1ccc(C2=Nn3c(nnc3-c3ccc(Br)cc3)SC2)cc1`, for which the values for the MIC in assay [1] and in assay [2] were 2 µg/mL (≈ 4.8 µM) and 0.25 µg/mL (≈ 0.601 µM), respectively.

With `c1ccc(C2=Nn3c(nnc3-c3ccccc3)SC2)cc1`, the minimal inhibitory concentration (MIC) in assay [1] worked out at 4 µg/mL (≈ 13.7 µM); in assay [2] it was 2 µg/mL (≈ 6.84 µM).

On to `O=[N+]([O-])c1ccc(C2=Nn3c(Cc4ccc5ccccc5c4)nnc3SC2)cc1`, for which the MIC in assay [1] and in assay [2] was 4 µg/mL (≈ 9.96 µM) each time.

In the case of `O=[N+]([O-])c1ccc(C2=Nn3c(nnc3-c3ccncc3F)SC2)cc1`, the values for the MIC in assay [1] and in assay [2] were 4 µg/mL (≈ 11.2 µM) and 2 µg/mL (≈ 5.61 µM), respectively.

Turning to `Fc1ccc(-c2nnc3sc(COc4ccccc4)nn23)cc1`, the MIC in assay [1] and in assay [2] was 8 µg/mL (≈ 24.5 µM) throughout.

With `Brc1ccc(-c2nnc3n2N=C(c2ccccc2)CS3)cc1`, the MIC in assay [1] amounted to 2 µg/mL (≈ 5.39 µM); in assay [2], 1 µg/mL (≈ 2.69 µM).

Turning to `NNC(=O)c1ccncc1` [ISONIAZID], the MIC in assay [1] came to 4 µg/mL (≈ 29.2 µM); in assay [2] it was 1 µg/mL (≈ 7.29 µM).

For the compound `CO[C@H]1/C=C/O[C@@]2(C)Oc3c(C)c(O)c4c(O)c(c(/C=N/N5CCN(C)CC5)c(O)c4c3C2=O)NC(=O)/C(C)=C\C=C\[C@H](C)[C@H](O)[C@@H](C)[C@@H](O)[C@@H](C)[C@H](OC(C)=O)[C@@H]1C` [RIFAMPIN], the MIC was at least 16 µg/mL in assay [1] and 16 µg/mL (≈ 19.4 µM) in assay [2].

The values are drawn from ChEMBL document CHEMBL3875182 (Bioorg Med Chem, 2017).
